{"source": "the supplement of paper PMC10307832", "experiment_in_all_cases": "relative viability (nuclei count vs DMSO), 5 days (fraction); higher = more cells survive", "key": {"BMX-IN-1 + Crizotinib": {"compound": "C=CC(=O)Nc1cc(-n2c(=O)ccc3cnc4ccc(-c5ccc(NS(C)(=O)=O)cc5)cc4c32)ccc1C [BMX-IN-1] + C[C@@H](Oc1cc(-c2cnn(C3CCNCC3)c2)cnc1N)c1c(Cl)ccc(F)c1Cl [Crizotinib] (partner 1 µM)", "in_short": "(§1)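 Nuclei were stained with Hoechst during a one-step fixation (final 0.05% Triton X-100, 1% formaldehyde, 1 ug/ml Hoechst) carried out 5 days after dosing, then counted on 4× images. The cells, lung cancer lines in 1536-well plates, had been dosed by pin tool the day after seeding with one drug alone or a fixed anchor-drug dose plus five library-drug doses (not always all listed) in √10 steps. Relative viability is the nuclei count in treated wells divided by that in vehicle wells, and each value is the median of duplicate plates.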"}, "BMX-IN-1 + Alpelisib": {"compound": "C=CC(=O)Nc1cc(-n2c(=O)ccc3cnc4ccc(-c5ccc(NS(C)(=O)=O)cc5)cc4c32)ccc1C [BMX-IN-1] + Cc1nc(NC(=O)N2CCC[C@H]2C(N)=O)sc1-c1ccnc(C(C)(C)C(F)(F)F)c1 [Alpelisib] (partner 2 µM)", "in_short": "as §1"}, "BMX-IN-1 + Decitabine": {"compound": "C=CC(=O)Nc1cc(-n2c(=O)ccc3cnc4ccc(-c5ccc(NS(C)(=O)=O)cc5)cc4c32)ccc1C [BMX-IN-1] + Nc1ncn([C@H]2C[C@H](O)[C@@H](CO)O2)c(=O)n1 [Decitabine] (partner 2 µM)", "in_short": "as §1"}, "PAC-1 + Palbociclib": {"compound": "C=CCc1cccc(/C=N/NC(=O)CN2CCN(Cc3ccccc3)CC2)c1O [PAC-1] + CC(=O)c1c(C)c2cnc(Nc3ccc(N4CCNCC4)cn3)nc2n(C2CCCC2)c1=O [Palbociclib] (partner 0.5 µM)", "in_short": "as §1"}, "PAC-1 + Vorinostat": {"compound": "C=CCc1cccc(/C=N/NC(=O)CN2CCN(Cc3ccccc3)CC2)c1O [PAC-1] + O=C(CCCCCCC(=O)Nc1ccccc1)NO [Vorinostat] (partner 1 µM)", "in_short": "as §1"}}, "data": [{"cell line": "201T", "values": [{"measurement": "relative viability", "setting": "BMX-IN-1 + Crizotinib; first compound 0.02 µM", "result": 1.03}, {"measurement": "relative viability", "setting": "BMX-IN-1 + Crizotinib; first compound 0.2 µM", "result": 1.05}, {"measurement": "relative viability", "setting": "BMX-IN-1 + Crizotinib; first compound 0.6325 µM", "result": 1.09}, {"measurement": "relative viability", "setting": "BMX-IN-1 + Crizotinib; first compound 2 µM", "result": 1.05}, {"measurement": "relative viability", "setting": "BMX-IN-1 + Alpelisib; first compound 0.02 µM", "result": 1.02}, {"measurement": "relative viability", "setting": "BMX-IN-1 + Alpelisib; first compound 0.2 µM", "result": 1.02}, {"measurement": "relative viability", "setting": "BMX-IN-1 + Alpelisib; first compound 0.6325 µM", "result": 0.987}, {"measurement": "relative viability", "setting": "BMX-IN-1 + Alpelisib; first compound 2 µM", "result": 1.02}, {"measurement": "relative viability", "setting": "BMX-IN-1 + Decitabine; first compound 0.02 µM", "result": 0.819}, {"measurement": "relative viability", "setting": "BMX-IN-1 + Decitabine; first compound 0.2 µM", "result": 0.847}, {"measurement": "relative viability", "setting": "BMX-IN-1 + Decitabine; first compound 0.6325 µM", "result": 0.864}, {"measurement": "relative viability", "setting": "BMX-IN-1 + Decitabine; first compound 2 µM", "result": 0.918}, {"measurement": "relative viability", "setting": "PAC-1 + Palbociclib; first compound 0.02 µM", "result": 0.347}, {"measurement": "relative viability", "setting": "PAC-1 + Palbociclib; first compound 0.06325 µM", "result": 0.346}, {"measurement": "relative viability", "setting": "PAC-1 + Palbociclib; first compound 0.2 µM", "result": 0.37}, {"measurement": "relative viability", "setting": "PAC-1 + Palbociclib; first compound 2 µM", "result": 0.363}, {"measurement": "relative viability", "setting": "PAC-1 + Vorinostat; first compound 0.02 µM", "result": 0.957}, {"measurement": "relative viability", "setting": "PAC-1 + Vorinostat; first compound 0.06325 µM", "result": 0.949}, {"measurement": "relative viability", "setting": "PAC-1 + Vorinostat; first compound 0.2 µM", "result": 1.09}, {"measurement": "relative viability", "setting": "PAC-1 + Vorinostat; first compound 2 µM", "result": 1.05}]}, {"cell line": "A549", "values": [{"measurement": "relative viability", "setting": "BMX-IN-1 + Crizotinib; first compound 0.02 µM", "result": 0.986}, {"measurement": "relative viability", "setting": "BMX-IN-1 + Crizotinib; first compound 0.2 µM", "result": 1.22}, {"measurement": "relative viability", "setting": "BMX-IN-1 + Crizotinib; first compound 0.6325 µM", "result": 0.945}, {"measurement": "relative viability", "setting": "BMX-IN-1 + Crizotinib; first compound 2 µM", "result": 0.738}, {"measurement": "relative viability", "setting": "BMX-IN-1 + Alpelisib; first compound 0.02 µM", "result": 0.94}, {"measurement": "relative viability", "setting": "BMX-IN-1 + Alpelisib; first compound 0.2 µM", "result": 0.716}, {"measurement": "relative viability", "setting": "BMX-IN-1 + Alpelisib; first compound 0.6325 µM", "result": 0.813}, {"measurement": "relative viability", "setting": "BMX-IN-1 + Alpelisib; first compound 2 µM", "result": 0.762}, {"measurement": "relative viability", "setting": "BMX-IN-1 + Decitabine; first compound 0.02 µM", "result": 0.289}, {"measurement": "relative viability", "setting": "BMX-IN-1 + Decitabine; first compound 0.2 µM", "result": 0.115}, {"measurement": "relative viability", "setting": "BMX-IN-1 + Decitabine; first compound 0.6325 µM", "result": 0.284}, {"measurement": "relative viability", "setting": "BMX-IN-1 + Decitabine; first compound 2 µM", "result": 0.293}]}, {"cell line": "A-427", "values": [{"measurement": "relative viability", "setting": "BMX-IN-1 + Crizotinib; first compound 0.02 µM", "result": 0.966}, {"measurement": "relative viability", "setting": "BMX-IN-1 + Crizotinib; first compound 0.2 µM", "result": 0.903}, {"measurement": "relative viability", "setting": "BMX-IN-1 + Crizotinib; first compound 0.6325 µM", "result": 1.09}, {"measurement": "relative viability", "setting": "BMX-IN-1 + Crizotinib; first compound 2 µM", "result": 0.887}, {"measurement": "relative viability", "setting": "BMX-IN-1 + Alpelisib; first compound 0.02 µM", "result": 1.04}, {"measurement": "relative viability", "setting": "BMX-IN-1 + Alpelisib; first compound 0.2 µM", "result": 1.11}, {"measurement": "relative viability", "setting": "BMX-IN-1 + Alpelisib; first compound 0.6325 µM", "result": 1.04}, {"measurement": "relative viability", "setting": "BMX-IN-1 + Alpelisib; first compound 2 µM", "result": 1.14}, {"measurement": "relative viability", "setting": "BMX-IN-1 + Decitabine; first compound 0.02 µM", "result": 0.544}, {"measurement": "relative viability", "setting": "BMX-IN-1 + Decitabine; first compound 0.2 µM", "result": 0.554}, {"measurement": "relative viability", "setting": "BMX-IN-1 + Decitabine; first compound 0.6325 µM", "result": 0.559}, {"measurement": "relative viability", "setting": "BMX-IN-1 + Decitabine; first compound 2 µM", "result": 0.551}, {"measurement": "relative viability", "setting": "PAC-1 + Palbociclib; first compound 0.02 µM", "result": 0.574}, {"measurement": "relative viability", "setting": "PAC-1 + Palbociclib; first compound 0.06325 µM", "result": 0.548}, {"measurement": "relative viability", "setting": "PAC-1 + Palbociclib; first compound 0.2 µM", "result": 0.549}, {"measurement": "relative viability", "setting": "PAC-1 + Palbociclib; first compound 2 µM", "result": 0.507}, {"measurement": "relative viability", "setting": "PAC-1 + Vorinostat; first compound 0.02 µM", "result": 0.891}, {"measurement": "relative viability", "setting": "PAC-1 + Vorinostat; first compound 0.06325 µM", "result": 0.889}, {"measurement": "relative viability", "setting": "PAC-1 + Vorinostat; first compound 0.2 µM", "result": 0.86}, {"measurement": "relative viability", "setting": "PAC-1 + Vorinostat; first compound 2 µM", "result": 0.8}]}, {"cell line": "ABC-1", "values": [{"measurement": "relative viability", "setting": "BMX-IN-1 + Crizotinib; first compound 0.02 µM", "result": 1.22}, {"measurement": "relative viability", "setting": "BMX-IN-1 + Crizotinib; first compound 0.2 µM", "result": 1.27}, {"measurement": "relative viability", "setting": "BMX-IN-1 + Crizotinib; first compound 0.6325 µM", "result": 0.69}, {"measurement": "relative viability", "setting": "BMX-IN-1 + Crizotinib; first compound 2 µM", "result": 0.904}, {"measurement": "relative viability", "setting": "BMX-IN-1 + Alpelisib; first compound 0.02 µM", "result": 0.98}, {"measurement": "relative viability", "setting": "BMX-IN-1 + Alpelisib; first compound 0.2 µM", "result": 1.2}, {"measurement": "relative viability", "setting": "BMX-IN-1 + Alpelisib; first compound 0.6325 µM", "result": 1.22}, {"measurement": "relative viability", "setting": "BMX-IN-1 + Alpelisib; first compound 2 µM", "result": 1.12}, {"measurement": "relative viability", "setting": "BMX-IN-1 + Decitabine; first compound 0.02 µM", "result": 1.22}, {"measurement": "relative viability", "setting": "BMX-IN-1 + Decitabine; first compound 0.2 µM", "result": 1.31}, {"measurement": "relative viability", "setting": "BMX-IN-1 + Decitabine; first compound 0.6325 µM", "result": 1.15}, {"measurement": "relative viability", "setting": "BMX-IN-1 + Decitabine; first compound 2 µM", "result": 1.16}, {"measurement": "relative viability", "setting": "PAC-1 + Palbociclib; first compound 0.02 µM", "result": 0.63}, {"measurement": "relative viability", "setting": "PAC-1 + Palbociclib; first compound 0.06325 µM", "result": 0.742}, {"measurement": "relative viability", "setting": "PAC-1 + Palbociclib; first compound 0.2 µM", "result": 0.678}, {"measurement": "relative viability", "setting": "PAC-1 + Palbociclib; first compound 2 µM", "result": 0.638}, {"measurement": "relative viability", "setting": "PAC-1 + Vorinostat; first compound 0.02 µM", "result": 1.06}, {"measurement": "relative viability", "setting": "PAC-1 + Vorinostat; first compound 0.06325 µM", "result": 1}, {"measurement": "relative viability", "setting": "PAC-1 + Vorinostat; first compound 0.2 µM", "result": 1.44}, {"measurement": "relative viability", "setting": "PAC-1 + Vorinostat; first compound 2 µM", "result": 1.09}]}]}
